Source: patent publication US20190030018A1 (Celgene Corporation, priority 2017, published 2019)

Test system: 563 solid tumor cell lines
Assay: Luminex assay in PRISM, 5 days treatment (AUC)
Assay type: cell-based
Parameters: AUC: scale not given here
Procedure: The AUC values provided in Table 80 below were calculated based on the Median Fluorescent Intensity values, the primary read out of the Luminex assay in PRISM. The following parameters were used in this assay: • 8 point dose was used in triplicate • max concentration of 10 μM was used with serial 4-fold dilutions (low of […]) • 563 adherent cell lines in 23 pools. • treatment duration was 5 days.

## O=C1CCC(N2Cc3cc(CNC(=O)C(F)(F)c4ccc(Cl)cc4)ccc3C2=O)C(=O)N1 (stereo not shown) [Compound 1, 2-(4-chlorophenyl)-N-((2-(2,6-dioxopiperidin-3-yl)-1-oxoisoindolin-5-yl)methyl)-2,2-difluoroacetamide]
SIMA_AUTONOMIC_GANGLIA
  AUC: 0.764
SJSA1_BONE
  AUC: 0.808
SKES1_BONE
  AUC: 0.984
SKHEP1_LIVER
  AUC: 0.817
SKLU1_LUNG
  AUC: 0.644
SKMEL2_SKIN
  AUC: 0.910
SKMEL3_SKIN
  AUC: 0.848
SKMEL5_SKIN
  AUC: 0.831
SKMEL24_SKIN
  AUC: 0.862
SKMEL30_SKIN
  AUC: 0.795
SKMES1_LUNG
  AUC: 0.902
SKNAS_AUTONOMIC_GANGLIA
  AUC: 0.832
SKNBE2_AUTONOMIC_GANGLIA
  AUC: 0.879
SKNEP1_BONE
  AUC: 0.523
SKNFI_AUTONOMIC_GANGLIA
  AUC: 0.852
SKOV3_OVARY
  AUC: 0.850
SKPNDW_BONE
  AUC: 0.861
SKUT1_SOFT_TISSUE
  AUC: 0.845
SNB75_CENTRAL_NERVOUS_SYSTEM
  AUC: 0.768
SNGM_ENDOMETRIUM
  AUC: 0.794
SNU46_UPPER_AERODIGESTIVE_TRACT
  AUC: 0.925
SNU61_LARGE_INTESTINE
  AUC: 0.881
SNU81_LARGE_INTESTINE
  AUC: 0.400
SNU182_LIVER
  AUC: 0.179
SNU216_STOMACH
  AUC: 0.521
SNU245_BILIARY_TRACT
  AUC: 0.853
SNU308_BILIARY_TRACT
  AUC: 0.873
SNU398_LIVER
  AUC: 0.951
SNU407_LARGE_INTESTINE
  AUC: 0.284
SNU410_PANCREAS
  AUC: 0.994
SNU423_LIVER
  AUC: 0.697
SNU449_LIVER
  AUC: 0.971
SNU668_STOMACH
  AUC: 0.423
SNU685_ENDOMETRIUM
  AUC: 0.812
SNU719_STOMACH
  AUC: 0.869
SNU738_CENTRAL_NERVOUS_SYSTEM
  AUC: 0.826
SNU840_OVARY
  AUC: 0.848
SNU869_BILIARY_TRACT
  AUC: 0.782
SNU878_LIVER
  AUC: 0.890
SNU886_LIVER
  AUC: 0.656
SNU1041_UPPER_AERODIGESTIVE_TRACT
  AUC: 0.806
SNU1066_UPPER_AERODIGESTIVE_TRACT
  AUC: 0.860
SNU1077_ENDOMETRIUM
  AUC: 0.759
SNU1105_CENTRAL_NERVOUS_SYSTEM
  AUC: 0.620
SNU1196_BILIARY_TRACT
  AUC: 0.653
SNU1214_UPPER_AERODIGESTIVE_TRACT
  AUC: 0.826
SNUC2A_LARGE_INTESTINE
  AUC: 0.608
SNUC4_LARGE_INTESTINE
  AUC: 0.290
SQ1_LUNG
  AUC: 0.838
SU8686_PANCREAS
  AUC: 0.848
SUIT2_PANCREAS
  AUC: 0.856
SW780_URINARY_TRACT
  AUC: 0.986
SW837_LARGE_INTESTINE
  AUC: 0.995
SW948_LARGE_INTESTINE
  AUC: 0.766
SW1088_CENTRAL_NERVOUS_SYSTEM
  AUC: 0.835
SW1116_LARGE_INTESTINE
  AUC: 0.879
SW1271_LUNG
  AUC: 0.718
SW1573_LUNG
  AUC: 0.894
SW1710_URINARY_TRACT
  AUC: 0.835
SW1990_PANCREAS
  AUC: 0.874
T3M10_LUNG
  AUC: 0.951
T24_URINARY_TRACT
  AUC: 0.906
T47D_BREAST
  AUC: 0.698
T98G_CENTRAL_NERVOUS_SYSTEM
  AUC: 0.830
TC32_BONE
  AUC: 0.681
TCCPAN2_PANCREAS
  AUC: 0.905
TE1_OESOPHAGUS
  AUC: 0.875
TE5_OESOPHAGUS
  AUC: 0.797
TE6_OESOPHAGUS
  AUC: 0.864
TE8_OESOPHAGUS
  AUC: 0.802
TE9_OESOPHAGUS
  AUC: 0.911
TE10_OESOPHAGUS
  AUC: 0.872
TE11_OESOPHAGUS
  AUC: 0.870
TE14_OESOPHAGUS
  AUC: 0.898
TEN_ENDOMETRIUM
  AUC: 0.815
TM31_CENTRAL_NERVOUS_SYSTEM
  AUC: 0.424
TOV21G_OVARY
  AUC: 0.864
TOV112D_OVARY
  AUC: 0.871
TT2609C02_THYROID
  AUC: 0.251
TTC709_SOFT_TISSUE
  AUC: 0.520
TT_OESOPHAGUS
  AUC: 0.859
TT_THYROID
  AUC: 0.179
TUHR4TKB_KIDNEY
  AUC: 0.265
U2OS_BONE
  AUC: 0.862
U87MG_CENTRAL_NERVOUS_SYSTEM
  AUC: 0.724
U118MG_CENTRAL_NERVOUS_SYSTEM
  AUC: 0.871
U251MG_CENTRAL_NERVOUS_SYSTEM
  AUC: 0.806
UACC62_SKIN
  AUC: 0.837
UACC257_SKIN
  AUC: 0.863
UBLC1_URINARY_TRACT
  AUC: 0.875
UO31_KIDNEY
  AUC: 0.710
VMRCRCW_KIDNEY
  AUC: 0.345
VMRCRCZ_KIDNEY
  AUC: 0.969
WM88_SKIN
  AUC: 0.802
WM793_SKIN
  AUC: 0.866
WM983B_SKIN
  AUC: 0.861
WM1799_SKIN
  AUC: 0.101
WM2664_SKIN
  AUC: 0.578
X8MGBA_CENTRAL_NERVOUS_SYSTEM
  AUC: 0.805
X42MGBA_CENTRAL_NERVOUS_SYSTEM
  AUC: 0.845
X253JBV_URINARY_TRACT
  AUC: 0.966
X253J_URINARY_TRACT
  AUC: 0.905
X647V_URINARY_TRACT
  AUC: 0.284
X769P_KIDNEY
  AUC: 0.463
X786O_KIDNEY
  AUC: 0.853
X5637_URINARY_TRACT
  AUC: 0.624
X8305C_THYROID
  AUC: 0.849
X8505C_THYROID
  AUC: 0.558
X2313287_STOMACH
  AUC: 0.254
YAPC_PANCREAS
  AUC: 0.719
YD8_UPPER_AERODIGESTIVE_TRACT
  AUC: 0.501
YD10B_UPPER_AERODIGESTIVE_TRACT
  AUC: 0.903
YD38_UPPER_AERODIGESTIVE_TRACT
  AUC: 0.877
YKG1_CENTRAL_NERVOUS_SYSTEM
  AUC: 0.936
ZR751_BREAST
  AUC: 0.853
